This assay concerns the target T1, P2X7 receptor (UniProt Q99572).
T1 sequence (Q99572 1-595): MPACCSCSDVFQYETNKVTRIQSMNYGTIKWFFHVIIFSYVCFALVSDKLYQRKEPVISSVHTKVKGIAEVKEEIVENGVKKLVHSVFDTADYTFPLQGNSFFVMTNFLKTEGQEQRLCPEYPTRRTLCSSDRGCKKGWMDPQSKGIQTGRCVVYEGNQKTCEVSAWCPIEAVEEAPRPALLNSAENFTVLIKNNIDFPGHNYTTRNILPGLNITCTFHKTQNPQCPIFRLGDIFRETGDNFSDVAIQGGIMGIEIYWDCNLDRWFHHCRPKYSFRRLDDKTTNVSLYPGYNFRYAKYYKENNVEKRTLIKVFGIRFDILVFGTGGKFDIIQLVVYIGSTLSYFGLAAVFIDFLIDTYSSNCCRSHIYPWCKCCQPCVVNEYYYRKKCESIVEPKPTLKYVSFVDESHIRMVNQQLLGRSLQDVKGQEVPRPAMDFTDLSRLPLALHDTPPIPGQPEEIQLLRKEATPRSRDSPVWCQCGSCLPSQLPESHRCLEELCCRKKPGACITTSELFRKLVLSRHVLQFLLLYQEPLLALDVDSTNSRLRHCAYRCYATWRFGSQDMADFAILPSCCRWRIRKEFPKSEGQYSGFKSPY
In words: pKi of Table 1 (assay not stated). The format is cell-based. The procedure:
Intracellular Calcium Flux (FLIPR) Assay
Stock solutions of compounds were prepared from powders as a 10 mM DMSO stock solution. These solutions were stored at RT during the two week period of these experiments to prevent freeze-thaw of the DMSO stocks. The DMSO stocks were added to the appropriate assay buffer at a concentration of 10 μM, and then diluted serially to the final concentrations that were tested. […] The aqueous solutions of compounds as well as ATP (Sigma A7699) and BzATP (Sigma B6396) were prepared fresh for each day of experiment.
1321N1 cells stably expressing the full length human P2X7 gene (1321N1-hP2X7) and HEK293 cells stably expressing the full length rat P2X7 gene (HEK293-rP2X7) were obtained from the Roche Cell Culture Facility. 1321N1-hP2X7 cells were grown in Dulbecco's Modified Eagle's Medium (DMEM) high glucose supplemented with 10% FBS and 250 μg/mL G418. HEK293-rP2X7 cells were grown in DMEM/F-12 supplemented with 10% FBS, 1 mM CaCl2, 2 mM MgCl2, 2 mM L-Glutamine and 500 μg/ml G418. Cells were split such that they never became>70% confluent.
On the day prior to the experiment, 1321N1-hP2X7 or HEK293-rP2X7 cells were released into suspension with calcium-free PBS+Versene and washed by centrifugation with calcium-free PBS to remove the Versene. Cells were resuspended in growth medium at a density of 2.5×10^5 cells/mL and seeded into black walled, clear bottom 96 well plates (50,000 cells/well) approximately 18 hr prior to intracellular calcium flux experiments.
On the day of the experiment, plates were washed with FLIPR buffer (calcium- and magnesium-free Hank's Balanced Salt Solution (HBSS) supplemented with 10 mM Hepes, 2.5 mM probenecid and 2 mM calcium chloride) using a BIO-TEK 96 channel plate washer and incubated with […] fluo-3 dye at 37° C. for one hr. The dye was then removed by plate washing and the cells were allowed to equilibrate for 20 min at room temperature with antagonist or vehicle (FLIPR buffer). Agonist (100 μM BzATP final concentration for hP2X7; 5 μM BzATP final concentration or rP2X7) was added online with the FLIPR and fluorescence measurements made at 1 sec intervals for 60 sec followed by 3 sec intervals for a further 4 min (5 min total). A final addition of 5 μM ionomycin was made and the maximal BzATP-evoked fluorescence normalized to the maximal ionomycin-evoked fluorescence.

24 molecules from patent publication US8372865B2, “Dihydropyridone amides as P2X7 modulators” (Roche Palo Alto LLC, priority 2008, dated 2013) can be followed below.

Broadly, the pKi is −log10 of the Ki, conventionally taken in molar units. A low value points to a high Ki.

As for `O=C1CC(c2cccc(F)c2)C(C(=O)Nc2cccc3[nH]ccc23)=CN1` (stereo not drawn) [Compound 1, 4-(3-Fluoro-phenyl)-6-oxo-1,4,5,6-tetrahydro-pyridine-3-carboxylic acid (1H-indol-4-yl)-amide], the pKi is 5.86.

Molecule `O=C1CC(c2cccc(F)c2)C(C(=O)Nc2ccc3cc[nH]c3c2)=CN1` (stereo not drawn) [Compound 2, 4-(3-Fluoro-phenyl)-6-oxo-1,4,5,6-tetrahydro-pyridine-3-carboxylic acid (1H-indol-6-yl)-amide] gave a negative-log Ki (pKi) of 5.24.

As to `O=C1C[C@@H](c2cccc(F)c2)C(C(=O)Nc2ccc3ncccc3c2Br)=CN1` [Compound 4, (S)-4-(3-Fluoro-phenyl)-6-oxo-1,4,5,6-tetrahydro-pyridine-3-carboxylic acid (5-bromo-quinolin-6-yl)-amide], the pKi stood at 6.953.

On to `O=C1C[C@@H](c2ccc(F)cc2)C(C(=O)Nc2cccc3ncccc23)=CN1` [Compound 5, (S)-4-(4-Fluoro-phenyl)-6-oxo-1,4,5,6-tetrahydro-pyridine-3-carboxylic acid quinolin-5-ylamide], for which the pKi stood at 5.345.

As for `O=C1C[C@@H](c2ccc(F)cc2)C(C(=O)Nc2ccc3ncccc3c2Br)=CN1` [Compound 6, (S)-4-(4-Fluoro-phenyl)-6-oxo-1,4,5,6-tetrahydro-pyridine-3-carboxylic acid (5-bromo-quinolin-6-yl)-amide], the negative-log Ki (pKi) is on record as 7.135.

With `CCc1cc2ncccc2cc1NC(=O)C1=CNC(=O)C[C@H]1c1ccc(F)cc1` [Compound 7, (S)-4-(4-Fluoro-phenyl)-6-oxo-1,4,5,6-tetrahydro-pyridine-3-carboxylic acid (7-ethyl-quinolin-6-yl)-amide], the pKi was found to be 6.673.

On to `CCc1c(NC(=O)C2=CNC(=O)C[C@H]2c2ccc(F)cc2)ccc2ncccc12` [Compound 8, (S)-4-(4-Fluoro-phenyl)-6-oxo-1,4,5,6-tetrahydro-pyridine-3-carboxylic acid (5-ethyl-quinolin-6-yl)-amide], for which the negative-log Ki (pKi) is 7.69.

For the molecule `Cc1cc2ccn(CCO)c2cc1NC(=O)C1=CNC(=O)C[C@H]1c1ccc(F)cc1` [Compound 9, (S)-4-(4-Fluoro-phenyl)-6-oxo-1,4,5,6-tetrahydro-pyridine-3-carboxylic acid [1-(2-hydroxy-ethyl)-5-methyl-1H-indol-6-yl]-amide], the pKi is listed as 7.71.

As to `Cc1c(NC(=O)C2=CNC(=O)C[C@H]2c2cccc(F)c2)ccc2ncccc12` [Compound 10, (S)-4-(3-Fluoro-phenyl)-6-oxo-1,4,5,6-tetrahydro-pyridine-3-carboxylic acid (5-methyl-quinolin-6-yl)-amide], the pKi was found to be 6.645.

As for `O=C1C[C@@H](c2cccc(F)c2)C(C(=O)Nc2cc3c(cc2Br)CCC(=O)N3)=CN1` [Compound 11, (S)-4-(3-Fluoro-phenyl)-6-oxo-1,4,5,6-tetrahydro-pyridine-3-carboxylic acid (6-bromo-2-oxo-1,2,3,4-tetrahydro-quinolin-7-yl)-amide], the negative-log Ki (pKi) is reported as 5.415.

On to `Cc1ccc2ncccc2c1NC(=O)C1=CNC(=O)C[C@H]1c1cccc(F)c1` [Compound 12, (S)-4-(3-Fluoro-phenyl)-6-oxo-1,4,5,6-tetrahydro-pyridine-3-carboxylic acid (6-methyl-quinolin-5-yl)-amide], for which the pKi was 7.695.

As to `CN1C(=O)CCc2cc(Br)c(NC(=O)C3=CNC(=O)C[C@H]3c3ccc(F)cc3)cc21` [Compound 13, (S)-4-(4-Fluoro-phenyl)-6-oxo-1,4,5,6-tetrahydro-pyridine-3-carboxylic acid (6-bromo-1-methyl-2-oxo-1,2,3,4-tetrahydro-quinolin-7-yl)-amide], the pKi came out at 6.9.

Consider `O=C1C[C@@H](c2ccc(F)cc2)C(C(=O)Nc2cccc3cnccc23)=CN1` [Compound 14, (S)-4-(4-Fluoro-phenyl)-6-oxo-1,4,5,6-tetrahydro-pyridine-3-carboxylic acid isoquinolin-5-ylamide], for which the negative logarithm of the Ki (pKi) came out at 6.425.

As for `Cc1ccc2c(NC(=O)C3=CNC(=O)C[C@H]3c3ccc(F)cc3)cccc2n1` [Compound 15, (S)-4-(4-Fluoro-phenyl)-6-oxo-1,4,5,6-tetrahydro-pyridine-3-carboxylic acid (2-methyl-quinolin-5-yl)-amide], the pKi stood at 7.46.

Consider `CCc1cc2ccn(CCO)c2cc1NC(=O)C1=CNC(=O)C[C@H]1c1ccc(F)cc1` [Compound 16, (S)-4-(4-Fluoro-phenyl)-6-oxo-1,4,5,6-tetrahydro-pyridine-3-carboxylic acid [5-ethyl-1-(2-hydroxy-ethyl)-1H-indol-6-yl]-amide], for which the pKi is 7.575.

On to `Cc1c(NC(=O)C2=CNC(=O)C[C@H]2c2ccc(F)cc2)ccc2ncccc12` [Compound 17, (S)-4-(4-Fluoro-phenyl)-6-oxo-1,4,5,6-tetrahydro-pyridine-3-carboxylic acid (5-methyl-quinolin-6-yl)-amide], for which the negative-log Ki (pKi) is 6.805.

In the case of `Cc1cc2c(cc1NC(=O)C1=CNC(=O)C[C@H]1c1ccc(F)cc1)N(C)C(=O)CC2` [Compound 18, (S)-4-(4-Fluoro-phenyl)-6-oxo-1,4,5,6-tetrahydro-pyridine-3-carboxylic acid (1,6-dimethyl-2-oxo-1,2,3,4-tetrahydro-quinolin-7-yl)-amide], the negative logarithm of the Ki (pKi) was 7.16.

`O=C1C[C@@H](c2ccc(F)cc2)C(C(=O)Nc2cc3c(cc2Br)CCC(=O)N3CCO)=CN1` [Compound 19, (S)-4-(4-Fluoro-phenyl)-6-oxo-1,4,5,6-tetrahydro-pyridine-3-carboxylic acid [6-bromo-1-(2-hydroxy-ethyl)-2-oxo-1,2,3,4-tetrahydro-quinolin-7-yl]-amide] yielded a pKi of 5.535.

Consider `Cc1cc2ncccc2cc1NC(=O)C1=CNC(=O)C[C@H]1c1cccc(F)c1` [Compound 20, (S)-4-(3-Fluoro-phenyl)-6-oxo-1,4,5,6-tetrahydro-pyridine-3-carboxylic acid (7-methyl-quinolin-6-yl)-amide], for which the negative-log Ki (pKi) is given as 6.825.

In turn, `O=C1C[C@@H](c2cccc(F)c2)C(C(=O)Nc2cc3c(cc2Br)OCC(=O)N3)=CN1` [Compound 21, (S)-4-(3-Fluoro-phenyl)-6-oxo-1,4,5,6-tetrahydro-pyridine-3-carboxylic acid (7-bromo-3-oxo-3,4-dihydro-2H-benzo[1,4]oxazin-6-yl)-amide] returned a pKi of 5.925.

For the molecule `CN1C(=O)COc2cc(Br)c(NC(=O)C3=CNC(=O)C[C@H]3c3cccc(F)c3)cc21` [Compound 22, (S)-4-(3-Fluoro-phenyl)-6-oxo-1,4,5,6-tetrahydro-pyridine-3-carboxylic acid (7-bromo-4-methyl-3-oxo-3,4-dihydro-2H-benzo[1,4]oxazin-6-yl)-amide], the negative logarithm of the Ki (pKi) turned out to be 6.905.

`Cc1cc2c(cc1NC(=O)C1=CNC(=O)C[C@H]1c1ccc(F)cc1)N(C)C(=O)CO2` [Compound 23, (S)-4-(4-Fluoro-phenyl)-6-oxo-1,4,5,6-tetrahydro-pyridine-3-carboxylic acid (4,7-dimethyl-3-oxo-3,4-dihydro-2H-benzo[1,4]oxazin-6-yl)-amide]: the negative-log Ki (pKi) worked out at 6.73.

`Cc1cc2c(cc1NC(=O)C1=CNC(=O)C[C@H]1c1cccc(F)c1)N(C)C(=O)CO2` [Compound 24, (S)-4-(3-Fluoro-phenyl)-6-oxo-1,4,5,6-tetrahydro-pyridine-3-carboxylic acid (4,7-dimethyl-3-oxo-3,4-dihydro-2H-benzo[1,4]oxazin-6-yl)-amide]: the negative logarithm of the Ki (pKi) was 7.015.

`CCc1cc2c(cc1NC(=O)C1=CNC(=O)C[C@H]1c1ccc(F)cc1)N(C)C(=O)CO2` [Compound 25, (S)-4-(4-Fluoro-phenyl)-6-oxo-1,4,5,6-tetrahydro-pyridine-3-carboxylic acid (7-ethyl-4-methyl-3-oxo-3,4-dihydro-2H-benzo[1,4]oxazin-6-yl)-amide] gave a negative-log Ki (pKi) of 6.88.
